Assay results from patent US20220280603A1, “TARGETING OF THE CYTOSKELETON AS A THERAPEUTIC APPROACH FOR NEURODEGENERATIVE DISEASE” (University of Massachusetts, priority 2019, published 2022).
“Also recorded” adds a separate entry of the source.

Tests used:
[1] = tested on: primary motor neurons (MNs); test: Cell death / apoptosis in treated motor neurons; type: cell-based, mouse
Experimental: (§1) Primary motor neurons (MNs) were isolated from E12.5 mouse embryonic spinal cords dissociated in 0.1% trypsin (Worthington) at 37° C. for 12 minutes. MNs were purified using a 6% Optiprep (Sigma-Aldrich) density gradient and plated on glass coverslips coated with 0.5 g/L poly-ornithine (Sigma-Aldrich) and laminin (Thermo Fisher). Cells were grown at 37° C. and 5% CO2 in Neurobasal medium (Thermo Fisher) supplemented with 0.25% Glutamax, 2% B27, 2% horse serum, and 10 ng/ml BDNF, GDNF, and CNTF. MNs at 2 days in vitro (DIV) were transfected using 1.75 μl NeuroMag reagent (OZ Biosciences)+0.5 μg DNA. Complete growth medium was replaced with serum free neurobasal medium 1 hour prior and after transfection. The paramagnetic nanobeads used for transfection can linger inside the cell and in the extracellular space for several days and can be detected as DAPI positive dots. The V5-PFN1 plasmids were described in Wu, C. H. et al. Mutations in the profilin 1 gene cause familial amyotrophic lateral sclerosis. Nature 488, 499-503 (2012). The (G4C2)80 (SEQ ID NO:12). construct was described in Almeida, S. et al. Modeling key pathological features of frontotemporal dementia with C9ORF72 repeat expansion in iPSC-derived human neurons. Acta Neuropathol 126, 385-399 (2013). […]

[2] = tested on: Neurofilament L mRNA in MNs expressing C71G PFN1; test: Fluorescence in situ hybridization of Neurofilament L mRNA; type: cell-based, mouse; settings: IMM01 vs DMSO
Experimental: as §1, with “C.” for “C. H. et al. Mutations in the profilin 1 gene cause familial amyotrophic lateral sclerosis. Nature 488, 499-503 (2012). The (G4C2)80 (SEQ ID NO:12). construct was described in Almeida, S. et al. Modeling key pathological features of frontotemporal dementia with C9ORF72 repeat expansion in iPSC-derived human neurons. Acta Neuropathol 126, 385-399 (2013).”
Immunofluorescence images were deconvolved using an adaptative blind deconvolution algorithm (Autoquant X3, Media Cybernetics) before analysis. To measure fluorescence intensities, the signals were thresholded and the resulting integrated densities were normalized on the area of the selected region (e.g. cell body, nucleus). […] For NCT dynamics, the fluorescence intensity of S-mCherry was measured in the nucleus using ImageJ and normalized to the background for every time point. […]

[3] = tested on: primary motor neurons (MNs) expressing C71G PFN1; test: Immunofluorescence of nuclear pore/NCT factors and TDP-43 in motor neurons expressing mutant PFN1; type: cell-based, mouse; settings: vs DMSO
Experimental: as §1, with “(2013). For the GFP-PFN1 constructs, WT or mutant PFN1 was PCR amplified from the V5 constructs and cloned in the pEGFP-C1 backbone using BamHI sites. The FH1-FH2 domains of murine formin mDia1 (amino acid residues 553-1192) were PCR amplified using specific primers and cloned into the pEGFP-C1 plasmid using XhoI and BamHI restriction sites. GFP or GFP-mDia1 were co-transfected in a 1:2 ratio with PFN1 or C9ORF72 plasmids.” for “(2013).”
(§2) Immunofluorescence images were deconvolved using an adaptative blind deconvolution algorithm (Autoquant X3, Media Cybernetics) before analysis. To measure fluorescence intensities, the signals were thresholded and the resulting integrated densities were normalized on the area of the selected region (e.g. cell body, nucleus). […]

[4] = tested on: fibroblasts from ALS patients carrying C9ORF72 repeat expansions; test: Immunofluorescence of RanGAP1 and FG-Nups in C9ORF72-ALS patient fibroblasts; type: cell-based, human; settings: 0.1 μM IMM01 for 24 hours, vs DMSO
Experimental: Fibroblasts were obtained from skin biopsies of 3 ALS patients carrying mutations in C9ORF72 gene and of 3 healthy donors, sex- and age-matched with ALS cases, after informed consent and approval by the IRCCS Istituto Auxologico Italiano ethics committee. C9ORF72 mutation was validated in primary fibroblasts by repeat-primed PCR and repeat expansion size determined by Southern blot analysis (range 600-1500 units). Fibroblasts were grown in RPMI 1640 medium (EuroClone) containing 2 g/L glucose and supplemented with 10% FBS (Sigma Aldrich), 2 mM L-glutamine, 2.5 μg/ml amphotericin B (Sigma Aldrich), 100 units/ml penicillin and 100 μg/ml streptomycin (Gibco). […]
Immunofluorescence images were deconvolved using an adaptative blind deconvolution algorithm (Autoquant X3, Media Cybernetics) before analysis. To measure fluorescence intensities, the signals were thresholded and the resulting integrated densities were normalized on the area of the selected region (e.g. cell body, nucleus). […] For NCT dynamics, the fluorescence intensity of S-mCherry was measured in the nucleus using ImageJ and normalized to the background for every time point. […] For the analysis of axonal fluorescence intensities, a 100 μm long region of the proximal axon was measured in all conditions. Axon lengths were measured using the ImageJ plugin NeuronJ 60. […]

[5] = tested on: fibroblasts from ALS patients carrying C9ORF72 repeat expansions; test: FISH for C9ORF72 RNA nuclear foci in patient fibroblasts; type: cell-based, human; settings: IMM01 treatment
Experimental: Fibroblasts were obtained from skin biopsies of 3 ALS patients carrying mutations in C9ORF72 gene and of 3 healthy donors, sex- and age-matched with ALS cases, after informed consent and approval by the IRCCS Istituto Auxologico Italiano ethics committee. C9ORF72 mutation was validated in primary fibroblasts by repeat-primed PCR and repeat expansion size determined by Southern blot analysis (range 600-1500 units). Fibroblasts were grown in RPMI 1640 medium (EuroClone) containing 2 g/L glucose and supplemented with 10% FBS (Sigma Aldrich), 2 mM L-glutamine, 2.5 μg/ml amphotericin B (Sigma Aldrich), 100 units/ml penicillin and 100 μg/ml streptomycin (Gibco). 10,000 cell/well were seeded on glass coverslip in 24-well plates and after 24 hours, 50% of medium was replaced with fresh medium and IMM01 (Sigma Aldrich) at the final concentration of 0.1 μM. After a 24-hour treatment, cells were fixed with 4% paraformaldehyde for 20 minutes, permeabilized with 0.3% Triton X-100/1×PBS for 5 minutes and processed for immunofluorescence as described below.
Motor neurons were fixed in 4% RNase-free paraformaldehyde for 15 minutes and stored in 70% ethanol at 4° C. overnight. […]

[6] = tested on: primary motor neurons (MNs); test: Actin depolymerization assay: immunofluorescence of NCT factors in Latrunculin A treated motor neurons; type: cell-based, mouse; settings: 0.1 mg/L Latrunculin A for 3 days
Experimental: Primary motor neurons (MNs) were isolated from E12.5 mouse embryonic spinal cords dissociated in 0.1% trypsin (Worthington) at 37° C. for 12 minutes. MNs were purified using a 6% Optiprep (Sigma-Aldrich) density gradient and plated on glass coverslips coated with 0.5 g/L poly-ornithine (Sigma-Aldrich) and laminin (Thermo Fisher). Cells were grown at 37° C. and 5% CO2 in Neurobasal medium (Thermo Fisher) supplemented with 0.25% Glutamax, 2% B27, 2% horse serum, and 10 ng/ml BDNF, GDNF, and CNTF. MNs at 2 days in vitro (DIV) were transfected using 1.75 μl NeuroMag reagent (OZ Biosciences)+0.5 μg DNA. Complete growth medium was replaced with serum free neurobasal medium 1 hour prior and after transfection. The paramagnetic nanobeads used for transfection can linger inside the cell and in the extracellular space for several days and can be detected as DAPI positive dots. The V5-PFN1 plasmids were described in Wu, C. H. et al. Mutations in the profilin 1 gene cause familial amyotrophic lateral sclerosis. Nature 488, 499-503 (2012). The (G4C2)80 (SEQ ID NO:12). construct was described in Almeida, S. et al. Modeling key pathological features of frontotemporal dementia with C9ORF72 repeat expansion in iPSC-derived human neurons. Acta Neuropathol 126, 385-399 (2013). For the GFP-PFN1 constructs, WT or mutant PFN1 was PCR amplified from the V5 constructs and cloned in the pEGFP-C1 backbone using BamHI sites. The FH1-FH2 domains of murine formin mDia1 (amino acid residues 553-1192) were PCR amplified using specific primers and cloned into the pEGFP-C1 plasmid using XhoI and BamHI restriction sites. GFP or GFP-mDia1 were co-transfected in a 1:2 ratio with PFN1 or C9ORF72 plasmids. Mock transfection controls were performed by subjecting the cells to all the steps of transfection without adding any plasmid DNA. For actin depolymerization assays, 2 DIV MNs were treated with 0.1 mg/L Latrunculin A (Cayman) for 3 days. For nuclear export inhibition, MNs were treated with 50 nM KPT-276 (Selleck) or equal volume of DMSO (Sigma Aldrich) 1 day after transfection. For formin induction, MNs were treated with 0.1 μM IMM01 (EMD Millipore) for 24 hr before fixation at 6 DIV.
Cells were fixed with 4% paraformaldehyde for 15 minutes. Fixed motor neurons were treated with hot 10 mM citrate buffer, pH 6 for 20 minutes before permeabilization with 0.2% Triton-X 100 for 5 minutes. […]
as §2

[7] = tested on: primary motor neurons (MNs) expressing C71G PFN1; test: Axon length and outgrowth analysis; type: cell-based, mouse
Experimental: Motor neurons were co-transfected as outlined above with green fluorescent protein (GFP) and V5-tagged PFN1 constructs in a 1:2 ratio. KPT-276 (50 nM) or equal volumes of DMSO were added to the culture medium 1 day after transfection and maintained throughout the experiment for a total of 3 days. Cells were fixed and stained to detect V5-PFN1 expression 4 days after transfection. Cells were imaged as individual focal planes using a 10× lens. GFP was used to identify transfected cells and highlight the whole cell structure. […]
Immunofluorescence images were deconvolved using an adaptative blind deconvolution algorithm (Autoquant X3, Media Cybernetics) before analysis. To measure fluorescence intensities, the signals were thresholded and the resulting integrated densities were normalized on the area of the selected region (e.g. cell body, nucleus). […] For NCT dynamics, the fluorescence intensity of S-mCherry was measured in the nucleus using ImageJ and normalized to the background for every time point. […] For the analysis of axonal fluorescence intensities, a 100 μm long region of the proximal axon was measured in all conditions. Axon lengths were measured using the ImageJ plugin NeuronJ 60. […] The rate of axon outgrowth was measured using the ImageJ plugin MTrackJ by tracking the movement of the growth cone in all fields. […]

**Q.** Which induction of apoptosis ([1]; primary MNs, 0.1 μM IMM01 for 24 hours) does the source give for `CC(C)(C)NC(=S)N/N=C/c1ccc(O)cc1O` [IMM01] here?
**A.** Its induction of apoptosis is “No induction of apoptosis was detected”.

**Q.** What about the “axonal localization of Nef1 mRNA” value [2] of the same molecule?
**A.** Its value is “rescue the defects in the axonal localization; also recorded: rescue of mislocalization”.

**Q.** What about the “FG-Nups localization at the nuclear envelope” value ([3]; 0.1 μM IMM01 for 24 hours) of the same molecule?
**A.** Its value is “rescue of FG-Nups defective localization at the nuclear envelope; also recorded: rescue of mislocalization”.

**Q.** And the “Ran gradient (Ran localization)” value ([3]; 0.1 μM IMM01 for 24 hours)?
**A.** The value was “rescue of mislocalization”.

**Q.** What about the “localization of FG-Nups” value [4] of the same molecule?
**A.** Its value is “rescued defects in the localization; also recorded: significantly rescued the defects”.

**Q.** And the “localization of RanGAP1” value [4]?
**A.** The value was “rescued defects in the localization; also recorded: significantly rescued the defects”.

**Q.** And the “propensity of the cell to form C9ORF72-positive nuclear foci” value [5]?
**A.** Its value is “without changes to the propensity of the cell to form C9ORF72-positive nuclear foci”.

**Q.** Which results are given for `C/C1=C/C(=O)O[C@@H]2C[C@@H](CC[C@H](C)/C=C\C=C\CC1)O[C@@](O)([C@@H]1CSC(=O)N1)C2` [Latrunculin A]?
**A.** localization of FG-Nups [6]: severe mislocalization; localization of Ran [6]: severe mislocalization; also recorded: disrupted; localization of RanGAP1 [6]: severe mislocalization; also recorded: disrupted; nuclear morphology [6]: smaller nuclei with condensed DNA; cell death or apoptosis ([1]; MNs, Latrunculin A treatment conditions (0.1 mg/L, 3 days), data not shown): No increased cell death or apoptosis was observed

**Q.** Which results are given for `O=C(/C=C\n1cnc(-c2cc(C(F)(F)F)cc(C(F)(F)F)c2)n1)N1CC(F)(F)C1` [KPT-276]?
**A.** axon length ([7]; 50 nM KPT-276 for 3 days, vs DMSO): fully rescued the defect; rate of axon growth (outgrowth) by live cell imaging ([7]; 50 nM KPT-276 ~18-24 hours, imaged over 1 hour): full rescue of the outgrowth defects; C:N ratio of TDP-43 (TDP-43 cytoplasmic mislocalization) ([3]; 50 nM KPT-276 6 hours prior to fixation): fully rescue TDP-43 cytoplasmic mislocalization; also recorded: rescues C:N ratio of TDP-43
